The values that follow come from patent US20110318302A1, “Cancer Treatment” (priority 2009, published 2011).

The test system of this test is human renal cancer cell line Caki-1. In words: Caki-1 tumour mouse model, single and combination therapy (tumour volume). The settings on record: single agent; s.c. Caki-1 tumours; F8-IL2 20 μg i.v. 3x every 3rd day; sorafenib or sunitinib 60 mg/kg p.o. 7 days; huIFNa2b/muIFNa1 10.000 IU/10.000 IU s.c. 3x; two treatment cycles (days 11-17, 37-43). The test is classed as in vivo, BALB/c nude mice. How it is done: For the combination therapy, the human renal cancer cell line Caki-1 (clear cell carcinoma from kidney; ATCC) was cultured in DMEM containing 10% fetal bovine serum and 2 mM L-glutamine (all Invitrogen).
Female BALE/c nude mice were obtained from Charles River Laboratories. All experiments were performed according to Swiss regulations and under a project license granted by the Veterinäramt des Kantons Zürich.
Sorafenib tosylate (Nexavar, Bayer Schering) and sunitinib malate (Sutent, Pfizer) were obtained in the commercially available forms of 200 mg tablets and 50 mg capsules, respectively. The total tablet weight of sorafenib is 350 mg and an index of 1.75 was used to keep the molarity in terms of active compound. Sorafenib tablets were pulverized with mortar and pestle and kept from light in a desiccator. For in vivo administration, pulverized sorafenib was dissolved in a solution of CremophorEL:Ethanol:H2O (12.5%:12.5%:75%). The content of a sunitinib malate capsule was 167 mg and a correction factor of 3.3 was used for molarity adjustment. […]
Mice were monitored daily and tumor volumes were measured three times per week with a digital caliper using the following formula: volume=length×width^2×0.5. […] Tumor volumes are expressed as mean±SE (standard error). […]

On to `CNC(=O)c1cc(Oc2ccc(NC(=O)Nc3ccc(Cl)c(C(F)(F)F)c3)cc2)ccn1` [Sorafenib], for which the “tumour burden (tumour volume) versus PBS control” value is listed as “little or no effect on tumour burden”.
